From ChEMBL document CHEMBL4219133, “Studies on non-steroidal inhibitors of aromatase enzyme; 4-(aryl/heteroaryl)-2-(pyrimidin-2-yl)thiazole derivatives” (Bioorg Med Chem, 2018)

Key:
Aromatase = target: T1, Aromatase (Homo sapiens, UniProt P11511)
T1 sequence (P11511 whole entry): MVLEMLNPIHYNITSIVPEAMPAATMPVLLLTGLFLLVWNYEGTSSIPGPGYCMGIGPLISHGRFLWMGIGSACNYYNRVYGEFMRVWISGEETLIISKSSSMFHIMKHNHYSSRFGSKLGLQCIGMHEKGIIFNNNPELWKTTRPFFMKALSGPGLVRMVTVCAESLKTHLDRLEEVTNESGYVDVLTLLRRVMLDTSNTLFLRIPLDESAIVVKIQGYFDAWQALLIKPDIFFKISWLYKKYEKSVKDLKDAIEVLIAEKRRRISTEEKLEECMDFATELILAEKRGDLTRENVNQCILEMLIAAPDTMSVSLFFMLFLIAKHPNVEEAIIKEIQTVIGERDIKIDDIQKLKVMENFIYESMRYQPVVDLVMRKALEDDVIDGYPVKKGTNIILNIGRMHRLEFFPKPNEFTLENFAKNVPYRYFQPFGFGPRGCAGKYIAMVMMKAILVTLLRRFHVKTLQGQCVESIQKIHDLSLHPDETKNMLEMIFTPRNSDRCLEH
Description: Inhibition of aromatase (unknown origin)

MCF7 = test: Antiproliferative activity against human MCF7 cells assessed as cell viability at 10^-4 M after 6 hrs by MTT assay relative to control; type: functional; conditions: MCF7, 6 h, read-out: Activity
[1] = Antiproliferative activity against HEK293 cells assessed as cell viability at 10^-4 M after 6 hrs by MTT assay relative to control; type: cell-based; conditions: human, read-out: Activity

Row | IC50 (Aromatase) [nM] | SMILES | viability at 100 µM (MCF7) [%] | viability at 6 h, 100 µM [1] [%]
1 | 4 | c1cncc(-c2csc(-c3cccnc3)n2)c1 |  | 
2 | 240 | c1cncc(-c2nsc(-c3cccnc3)n2)c1 |  | 
3 | > 50000 | c1ccc(-c2nsc(-c3ccccc3)n2)cc1 |  | 
4 |  | COc1ccccc1-c1csc(-c2ncccn2)n1 | 130 | 87
5 |  | c1cnc(-c2nc(-c3ccco3)cs2)nc1 | 76 | 59
6 |  | COc1ccc(-c2csc(-c3ncccn3)n2)cc1 | 127 | 101
7 |  | Clc1cccc(-c2csc(-c3ncccn3)n2)c1 | 86.9 | 107
8 |  | c1ccc(-c2csc(-c3ncccn3)n2)nc1 | 74.2 | 101
9 |  | c1cnc(-c2nc(-c3cc4ccccc4s3)cs2)nc1 | 120 | 83.5
10 |  | Oc1ccc(-c2csc(-c3ncccn3)n2)cc1 | 227 | 94
11 |  | Oc1ccccc1-c1csc(-c2ncccn2)n1 | 129 | 131
12 |  | c1cnc(-c2nc(-c3ccncc3)cs2)nc1 | 76.6 | 101
13 |  | c1cnc(-c2nc(-c3cccs3)cs2)nc1 | 136 | 77
14 |  | Oc1cccc(-c2csc(-c3ncccn3)n2)c1 | 112 | 113
15 |  | Cn1c(-c2csc(-c3ncccn3)n2)nc2ccccc21 | 128 | 102
16 |  | Cc1ccc(O)c(-c2csc(-c3ncccn3)n2)c1 | 195 | 91.8
17 |  | c1cnc(-c2nc(-c3nc4ccccc4s3)cs2)nc1 | 60.7 | 117
18 |  | c1cnc(-c2nc(-c3cccnc3)cs2)nc1 | 75.5 | 89
19 |  | Oc1ccc(Cl)cc1-c1csc(-c2ncccn2)n1 | 162 | 78
20 |  | COc1cccc(-c2csc(-c3ncccn3)n2)c1 | 137 | 95
21 |  | c1cnc(-c2nc(-c3cc4ccccc4o3)cs2)nc1 | 131 | 108
22 |  | Clc1ccccc1-c1csc(-c2ncccn2)n1 | 125 | 89.4
23 |  | COc1ccc(O)c(-c2csc(-c3ncccn3)n2)c1 | 208 | 81.3
24 |  | Clc1ccc(-c2csc(-c3ncccn3)n2)cc1 | 146 | 101
